Source: US12568998B2, “Flavouring composition with balanced taste profile” (SYMRISE AG, priority 2021, dated 2026)
Entries after “also recorded” stand apart in the source; their conditions may differ.

What was measured:
[1] = Sensory profiling of ice tea preparation, HT/HC ratios 1:1 and 1:6 (Example 4); details: tea base, 5 wt.-% HFCS, 0.18 wt.-% citric acid, line scale (10 cm)
Method: In order to further validate the insights derived from Example 1 and 2, the interaction and main effects of HT and HC are to be shown in a setup in which a drinkable preparation with a tea base, 0.05 wt.-% lemon flavor, 5 wt.-% high fructose corn syrup, 0.18 wt.-% citric acid and 0.03 wt.-% trisodium citrate was prepared. That preparation was divided into four samples by varying the dosage of HT and HC resulting in one sample containing no HT and no HC (control), containing 5 or 3 ppm HT and no HC (HT main effect), containing no HT and 5 or 18 ppm HC (HC main effect) and, respectively, containing 5 or 3 ppm HT and or 18 ppm HC (HT×HC interaction effect). […] The final preparations were profiled by an expert panel consisting of seven educated panelists (two measurements). Different sensorial attributes (ice tea language with focus on sweetness) were assessed and scored on an unstructured line scale (10 cm) for its perceived intensity. The results of the testing are shown below in Table 4 and 5 as well as in FIG. 4 to FIG. 7.

[2] = Sensory profiling of ice tea preparation, HT/HC ratio 1:3.33 (Example 2); details: tea base, 4 wt.-% HFCS, 0.10 wt.-% citric acid, HT 3 ppm and/or HC 10 ppm; for Acidity / Balance / Bitter / Complexity / Fruity-Juicy / Long lasting / Off-Notes / Onset Sweetness / Overall Sweetness / Syrupy / Tea: line scale (10 cm)
Method: In order to further validate the insights derived from Example 1, the interaction and main effects of HT and HC are to be shown in a setup in which a drinkable preparation with a tea base, 0.05 wt.-% lemon flavor, 4 wt.-% high fructose corn syrup, 0.1 wt.-% citric acid and 0.03 wt.-% trisodium citrate was prepared. That preparation was divided into four samples by varying the dosage of HC and HT resulting in one sample containing no HC and no HT (control), containing 10 ppm HC and no HT (HC main effect), containing no HC and 3 ppm HT (HT main effect) and, respectively, containing 10 ppm HC and 3 ppm HT (HT×HC interaction effect). […] The final preparations were profiled by an expert panel consisting of ten educated panelists (two measurements). Different sensorial attributes (ice tea language with focus on sweetness) were assessed and scored on an unstructured line scale (10 cm) for its perceived intensity. The results of the testing are shown below in Table 2 as well as in FIG. 1 and FIG. 2.

[3] = Sensory descriptive analysis of ice tea prototypes, sweetness factor (Example 1); details: HC 10 ppm and/or HT 3 ppm
[4] = J. Chem. Senses 1979, 4(1), 35-47; cited from earlier work
[5] = Dosing tests with an excess of hesperetin, sensory ranking (Example 3)
Method: A drinkable preparation with 7 wt.-% sucrose and 0.15 wt.-% citric acid was prepared. This preparation was used as a base composition for dosing tests with different dosing regimens of hesperetin dihydrochalcone and hesperetin. The different samples were evaluated by an expert panel consisting of five educated panelists and ranked on a scale from 0 to 9. The results of the testing are shown below in Table 3 as well as in FIG. 3.

[6] = Acesulfame K Ice tea Base, 60 ppm
[7] = HFCS Ice tea Base, 2 wt. % High Fructose corn sirup
[8] = Invert Sugar Syrup Ice tea Base, 2 wt. % invert sugar syrup
[9] = Reb A Ice tea Base, 60 ppm rebaudioside A
[10] = Reb A/Reb D Ice tea Base, 60 ppm rebaudioside A/60 ppm rebaudioside D
[11] = Reb A/Reb M Ice tea Base, 60 ppm rebaudioside A/45 ppm rebaudioside M
[12] = Reb M/Reb D Ice tea Base, 45 ppm rebaudioside M/60 ppm rebaudioside D
[13] = Sucralose Ice tea Base, 100 ppm sucralose
[14] = Sugar Free Ice tea Base, no added sugar/sweetener

Structure (SMILES): COc1ccc(CCC(=O)c2c(O)cc(O)cc2O)cc1O [HC, hesperetin dihydrochalcone]
- Acidity ([1]; HT 3 ppm and/or HC 18 ppm): 3.12
- Balance ([1]; HT 3 ppm and/or HC 18 ppm): 3.66
- Bitter ([1]; HT 3 ppm and/or HC 18 ppm): 1.94
- Complexity ([1]; HT 3 ppm and/or HC 18 ppm): 4.58
- Fruity-Juicy ([1]; HT 3 ppm and/or HC 18 ppm): 4.27
- Long lasting ([1]; HT 3 ppm and/or HC 18 ppm): 4.20
- Off-Notes ([1]; HT 3 ppm and/or HC 18 ppm): 1.01
- Onset Sweetness ([1]; HT 3 ppm and/or HC 18 ppm): 4.99
- Overall Sweetness ([1]; HT 3 ppm and/or HC 18 ppm): 5.60
- Syrupy ([1]; HT 3 ppm and/or HC 18 ppm): 4.32
- Tea ([1]; HT 3 ppm and/or HC 18 ppm): 4.01
- Acidity ([1]; HT 5 ppm and/or HC 5 ppm): 3.46
- Balance ([1]; HT 5 ppm and/or HC 5 ppm): 3.68
- Bitter ([1]; HT 5 ppm and/or HC 5 ppm): 1.93
- Complexity ([1]; HT 5 ppm and/or HC 5 ppm): 3.90
- Fruity-Juicy ([1]; HT 5 ppm and/or HC 5 ppm): 4.68
- Long lasting ([1]; HT 5 ppm and/or HC 5 ppm): 3.11
- Off-Notes ([1]; HT 5 ppm and/or HC 5 ppm): 0.70
- Onset Sweetness ([1]; HT 5 ppm and/or HC 5 ppm): 4.19
- Overall Sweetness ([1]; HT 5 ppm and/or HC 5 ppm): 4.46
- Syrupy ([1]; HT 5 ppm and/or HC 5 ppm): 3.96
- Tea ([1]; HT 5 ppm and/or HC 5 ppm): 4.11
- Remarks [2]: lingering,; also recorded: sweetener
- Acidity [2]: 3.22
- Balance [2]: 3.50
- Bitter [2]: 2.58
- Complexity [2]: 3.62
- Fruity-Juicy [2]: 3.88
- Long lasting [2]: 3.90
- Off-Notes [2]: 2.25
- Onset Sweetness [2]: 4.39
- Overall Sweetness [2]: 4.80
- Syrupy [2]: 3.70
- Tea [2]: 4.08
- ANOVA (sweetness factor) [3, 6]: −0.1
- ANOVA (sweetness factor) [3, 7]: −0.9
- ANOVA (sweetness factor) [3, 8]: −1
- ANOVA (sweetness factor) [3, 9]: −0.5
- ANOVA (sweetness factor) [3, 10]: −0.1
- ANOVA (sweetness factor) [3, 11]: 0
- ANOVA (sweetness factor) [3, 12]: −0.3
- ANOVA (sweetness factor) [3, 13]: −0.8
- ANOVA (sweetness factor) [3, 14]: −1.3

Structure (SMILES): COc1ccc(CCC(=O)c2ccccc2O)cc1O [dihydrochalcone (1)]
- taste [4]: intensively sweet tasting

Structure (SMILES): COc1ccc(CCC(=O)c2c(O)cccc2O)cc1O [dihydrochalcone (2)]
- taste [4]: tasteless

Structure (SMILES): COc1ccc([C@@H]2CC(=O)c3c(O)cc(O)cc3O2)cc1O [HT, hesperetin]
- Acidity ([1]; HT 3 ppm and/or HC 18 ppm): 4.11
- Balance ([1]; HT 3 ppm and/or HC 18 ppm): 3.24
- Bitter ([1]; HT 3 ppm and/or HC 18 ppm): 2.21
- Complexity ([1]; HT 3 ppm and/or HC 18 ppm): 3.99
- Fruity-Juicy ([1]; HT 3 ppm and/or HC 18 ppm): 4.19
- Long lasting ([1]; HT 3 ppm and/or HC 18 ppm): 2.61
- Off-Notes ([1]; HT 3 ppm and/or HC 18 ppm): 0.77
- Onset Sweetness ([1]; HT 3 ppm and/or HC 18 ppm): 4.22
- Overall Sweetness ([1]; HT 3 ppm and/or HC 18 ppm): 4.53
- Syrupy ([1]; HT 3 ppm and/or HC 18 ppm): 3.72
- Tea ([1]; HT 3 ppm and/or HC 18 ppm): 4.39
- Acidity ([1]; HT 5 ppm and/or HC 5 ppm): 4.06
- Balance ([1]; HT 5 ppm and/or HC 5 ppm): 3.94
- Bitter ([1]; HT 5 ppm and/or HC 5 ppm): 1.87
- Complexity ([1]; HT 5 ppm and/or HC 5 ppm): 3.87
- Fruity-Juicy ([1]; HT 5 ppm and/or HC 5 ppm): 4.32
- Long lasting ([1]; HT 5 ppm and/or HC 5 ppm): 2.79
- Off-Notes ([1]; HT 5 ppm and/or HC 5 ppm): 0.58
- Onset Sweetness ([1]; HT 5 ppm and/or HC 5 ppm): 3.89
- Overall Sweetness ([1]; HT 5 ppm and/or HC 5 ppm): 4.07
- Syrupy ([1]; HT 5 ppm and/or HC 5 ppm): 3.59
- Tea ([1]; HT 5 ppm and/or HC 5 ppm): 4.16
- Acidity [2]: 3.71
- Balance [2]: 3.20
- Bitter [2]: 2.93
- Complexity [2]: 3.06
- Fruity-Juicy [2]: 3.60
- Long lasting [2]: 2.32
- Off-Notes [2]: 1.85
- Onset Sweetness [2]: 3.14
- Overall Sweetness [2]: 3.39
- Syrupy [2]: 2.67
- Tea [2]: 4.30
- ANOVA (sweetness factor) [3, 6]: −2.4
- ANOVA (sweetness factor) [3, 7]: −3.2
- ANOVA (sweetness factor) [3, 8]: −3.3
- ANOVA (sweetness factor) [3, 9]: −2.8
- ANOVA (sweetness factor) [3, 10]: −2.4
- ANOVA (sweetness factor) [3, 11]: −2.3
- ANOVA (sweetness factor) [3, 12]: −2.6
- ANOVA (sweetness factor) [3, 13]: −3.1
- ANOVA (sweetness factor) [3, 14]: −3.6
- hesperetin concentration exhibiting off-tastes in the preparation [5]: more than 30 ppm
